Literature values in patent US6532437B1, “Crystalline frap complex” (Cornell Research Foundation, Inc., priority 1996, dated 2003).

Key:
[1] = tested on: spontaneous SLE in MRL/lpr-mice
[2] = tested on: Chronic GVHD in BDF1 mice; settings: BDF1 mice given DBA/2 spleen:lymph node cells

| Compound | effect on course of disease [1] | activity in CGVHD model [2] |
| --- | --- | --- |
| O=P1(N(CCCl)CCCl)NCCCO1 (centres unmarked) [cyclophosphamide] | can prevent and reverse the course of disease | active |
| Cc1oncc1C(=O)Nc1ccc(C(F)(F)F)cc1 [leflunomide] | can prevent and reverse the course of disease | active |
| C[C@]12C=CC(=O)C=C1CC[C@@H]1[C@@H]2[C@@H](O)C[C@@]2(C)[C@H]1CC[C@]2(O)C(=O)CO [prednisolone] |  | active |
